Data published in ChEMBL document CHEMBL5523742 (J Med Chem, 2024).
Blank lines part the entries; values can stand above or below the compound they belong to. Activity calls are given as the source filed them. No cut-off for these calls is given here. Numbered stars: 1 amine (or outer) side, 2 acyl side, 3 side chain; on linkers, the order of the positions; unused ones are H or OH. Square brackets hold non-standard residues; d marks the D form. Side chains are listed from the residue outwards. Peptide text beside a SMILES is read from it. * marks the point of attachment. ξ: configuration not given here. C20 diacid = O=C(O)CCCCCCCCCCCCCCCCCCC(=O)*; γGlu = O=C(O)[C@H](CCC(=O)[*:2])N[*:1]; ξγGlu = O=C(O)C(CCC(=O)[*:2])N[*:1]; AEEA = NCCOCCOCC(=O)O; Aib = CC(C)(N)C(=O)O

Columns and labels:
Homo sapiens = organism: Homo sapiens; assay: Selectivity index, ratio of EC50 for agonist activity human SCTR stably expressed in CHO-K1 cells assessed as […] in cAMP accumulation to EC50 for agonist activity human GLP-1R stably expressed in CHO-K1 cells assessed as […] in cAMP accumulation; type: cell-based
[1] = Chemical stability of compound at pH 7 assessed as compound degradation; type: physicochemical; conditions: buffer
[2] = Drug concentration in sc dosed C57BL/6JRj mouse plasma administered once daily for 28 days and measured after 24 hrs by LC-MS/MS analysis; type: ADME, organism-based; conditions: in vivo, 696 h, dose 3-30 nmol/kg, time 29 day
[3] = Chemical stability of compound at pH 8 assessed as compound degradation; type: physicochemical; conditions: buffer; for degraded: read-out: Drug degradation
[4] = Toxicity in sc dosed C57BL/6JRj mouse model assessed as reduction in body weight administered once daily for 28 days; type: organism-based; conditions: in vivo, 672 h, dose 3-30 nmol/kg, time 28 day
Secretin receptor = Secretin receptor (Homo sapiens, UniProt P47872); assay: Agonist activity human SCTR stably expressed in CHO-K1 cells assessed as […] in cAMP accumulation incubated for 30 mins by TR-FRET assay; type: functional, cell-based
Chain of Secretin receptor (P47872 whole entry): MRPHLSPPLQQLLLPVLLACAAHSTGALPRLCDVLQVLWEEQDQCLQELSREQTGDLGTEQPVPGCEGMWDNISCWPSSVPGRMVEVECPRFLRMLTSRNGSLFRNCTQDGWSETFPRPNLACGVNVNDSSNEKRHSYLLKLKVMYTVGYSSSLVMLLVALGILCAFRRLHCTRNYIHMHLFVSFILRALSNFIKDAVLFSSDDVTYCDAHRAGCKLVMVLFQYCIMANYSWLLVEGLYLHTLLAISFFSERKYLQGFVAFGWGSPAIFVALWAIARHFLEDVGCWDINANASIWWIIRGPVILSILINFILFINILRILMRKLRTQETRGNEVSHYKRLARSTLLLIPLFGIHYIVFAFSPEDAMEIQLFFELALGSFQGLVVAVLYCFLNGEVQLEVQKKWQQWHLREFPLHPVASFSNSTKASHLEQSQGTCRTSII

[5] = biological target: Glucagon-like peptide 1 receptor (Homo sapiens, UniProt P43220); assay: Agonist activity human GLP-1R stably expressed in CHO-K1 cells assessed as […] in cAMP accumulation incubated for 30 mins by TR-FRET assay; type: functional, cell-based
Chain of Glucagon-like peptide 1 receptor (P43220 whole entry): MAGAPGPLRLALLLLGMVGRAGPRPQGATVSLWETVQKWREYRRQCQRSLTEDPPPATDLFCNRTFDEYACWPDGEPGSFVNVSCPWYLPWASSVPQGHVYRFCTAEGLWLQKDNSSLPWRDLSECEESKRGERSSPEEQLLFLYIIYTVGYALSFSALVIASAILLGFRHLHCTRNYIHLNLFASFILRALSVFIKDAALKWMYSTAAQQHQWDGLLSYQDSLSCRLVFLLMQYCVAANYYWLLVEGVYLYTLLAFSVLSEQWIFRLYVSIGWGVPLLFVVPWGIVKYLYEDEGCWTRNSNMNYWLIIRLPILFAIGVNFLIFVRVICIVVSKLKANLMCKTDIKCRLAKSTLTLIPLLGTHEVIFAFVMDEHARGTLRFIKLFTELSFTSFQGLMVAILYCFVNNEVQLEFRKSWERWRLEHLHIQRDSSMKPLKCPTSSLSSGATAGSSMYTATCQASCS

Mus musculus [6] = assay: Protection against diet-induced obesity in C57BL/6JRj mouse model assessed as reduction in whole-body adipose tissue mass at 3 to 30 nmol/kg administered once daily for 28 days; type: functional, organism-based; conditions: dose 3-30 nmol/kg, time 28.0 day
Mus musculus [7] = assay: Protection against diet-induced obesity in sc dosed C57BL/6JRj mouse model assessed as reduction in food intake administered once daily for 28 days and measured after 2 to 3 days; type: functional, organism-based; conditions: dose 3-30 nmol/kg, time 28-31 day
[8] = biological target: Glucagon receptor (Homo sapiens) (UniProt P47871); assay: Activation of GCGR (unknown origin) upto 3000 nM
Chain of Glucagon receptor (Homo sapiens) (P47871 whole entry): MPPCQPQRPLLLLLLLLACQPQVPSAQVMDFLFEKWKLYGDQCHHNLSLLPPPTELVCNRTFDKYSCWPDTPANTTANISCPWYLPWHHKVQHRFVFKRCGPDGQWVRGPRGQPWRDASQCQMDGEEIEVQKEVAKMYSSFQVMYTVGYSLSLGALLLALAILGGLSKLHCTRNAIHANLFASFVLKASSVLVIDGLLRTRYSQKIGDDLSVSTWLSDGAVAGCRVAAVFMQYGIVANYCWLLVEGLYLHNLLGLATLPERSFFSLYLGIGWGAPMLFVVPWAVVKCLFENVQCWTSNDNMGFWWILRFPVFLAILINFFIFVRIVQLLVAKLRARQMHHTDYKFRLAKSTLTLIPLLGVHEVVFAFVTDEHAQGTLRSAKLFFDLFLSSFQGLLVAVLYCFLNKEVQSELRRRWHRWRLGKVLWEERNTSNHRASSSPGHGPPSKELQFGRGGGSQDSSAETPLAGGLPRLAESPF

[9] = biological target: T1, Gastric inhibitory polypeptide receptor (Homo sapiens) (UniProt P48546); assay: Activation of GIPR (unknown origin) upto 3000 nM
T1 sequence (whole entry): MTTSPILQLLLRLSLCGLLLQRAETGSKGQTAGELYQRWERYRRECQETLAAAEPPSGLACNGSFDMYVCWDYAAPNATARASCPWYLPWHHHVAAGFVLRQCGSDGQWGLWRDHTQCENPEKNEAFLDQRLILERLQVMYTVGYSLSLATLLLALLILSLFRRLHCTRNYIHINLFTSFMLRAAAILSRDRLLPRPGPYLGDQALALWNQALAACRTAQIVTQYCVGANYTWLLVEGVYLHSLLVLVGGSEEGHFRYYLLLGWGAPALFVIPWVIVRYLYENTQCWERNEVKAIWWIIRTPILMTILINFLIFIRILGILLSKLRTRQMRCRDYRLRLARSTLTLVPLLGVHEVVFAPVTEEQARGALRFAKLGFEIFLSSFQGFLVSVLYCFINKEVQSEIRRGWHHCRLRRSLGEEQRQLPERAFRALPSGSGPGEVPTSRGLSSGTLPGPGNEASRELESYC

[10] = biological target: T2, Glucagon-like peptide 2 receptor (Homo sapiens) (UniProt O95838); assay: Activation of GLP-2R (unknown origin) upto 3000 nM
T2 sequence (whole entry): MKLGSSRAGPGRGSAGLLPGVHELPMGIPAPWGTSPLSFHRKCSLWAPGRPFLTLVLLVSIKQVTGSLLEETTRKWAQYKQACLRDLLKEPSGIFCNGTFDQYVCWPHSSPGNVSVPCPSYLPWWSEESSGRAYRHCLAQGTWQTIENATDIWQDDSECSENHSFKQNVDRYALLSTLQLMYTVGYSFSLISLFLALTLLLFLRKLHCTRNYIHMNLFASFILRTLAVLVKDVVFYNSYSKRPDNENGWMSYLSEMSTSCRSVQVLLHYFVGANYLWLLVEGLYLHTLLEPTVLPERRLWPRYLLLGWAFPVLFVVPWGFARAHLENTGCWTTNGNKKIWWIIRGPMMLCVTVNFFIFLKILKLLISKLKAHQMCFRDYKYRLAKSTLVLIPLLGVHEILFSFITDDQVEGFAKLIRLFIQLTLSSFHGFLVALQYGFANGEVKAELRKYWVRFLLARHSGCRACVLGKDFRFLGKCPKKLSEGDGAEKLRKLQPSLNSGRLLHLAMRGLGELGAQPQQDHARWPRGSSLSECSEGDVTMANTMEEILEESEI

Compound: SECRETIN [listing 1 of 2 here]
- Ratio EC50 (Homo sapiens): 1 10^-6No_unit

- degraded ([1]; read-out: Drug degradation): 1.4%
- Cp [2]: Dose-Dependent Effect
- degraded [3]: 0.55%
Compound: CC(C)C[C@H](NC(=O)[C@H](Cc1ccccc1)NC(=O)[C@H](CCCNC(=N)N)NC(=O)[C@H](CCC(N)=O)NC(=O)[C@H](CC(C)C)NC(=O)C(C)(C)NC(=O)[C@H](C)NC(=O)[C@H](CCC(=O)O)NC(=O)[C@H](CCC(=O)O)NC(=O)[C@H](CCCCNC(=O)COCCOCCNC(=O)COCCOCCNC(=O)CC[C@H](NC(=O)CCCCCCCCCCCCCCCCCCC(=O)O)C(=O)O)NC(=O)[C@H](CC(C)C)NC(=O)[C@H](Cc1ccc(O)cc1)NC(=O)[C@H](CO)NC(=O)[C@@H](NC(=O)[C@H](CC(=O)O)NC(=O)[C@H](CO)NC(=O)[C@@H](NC(=O)[C@H](Cc1ccccc1)NC(=O)[C@@H](NC(=O)CNC(=O)[C@H](CCC(=O)O)NC(=O)C(C)(C)NC(=O)[C@@H](N)Cc1c[nH]cn1)[C@@H](C)O)[C@@H](C)O)C(C)C)C(=O)N[C@@H](CCC(=O)O)C(=O)N[C@@H](Cc1c[nH]cn1)C(=O)N[C@@H](CC(C)C)C(=O)N[C@H](C(N)=O)C(C)C (H-H[Aib]EGTFTSDVSYLK([AEEA-AEEA-γGlu-C20 diacid])EEA[Aib]LQRFLEHLV-NH2)
- Activity [4]: Dose-Dependent Effect

- Drug degradation [1]: 8.6%
- Drug degradation [3]: 9%
- EC50 (Secretin receptor; cho-k1): 0.002 nM
- EC50 [5]: 2300 nM
Compound: SECRETIN [listing 2 of 2 here]

- Activity [8]: inactive
- Activity [9]: inactive
- Activity [10]: inactive
Compound: CC(C)C[C@H](NC(=O)[C@H](Cc1ccccc1)NC(=O)[C@H](CCCNC(=N)N)NC(=O)[C@H](CCC(N)=O)NC(=O)[C@H](CC(C)C)NC(=O)C(C)(C)NC(=O)[C@H](C)NC(=O)[C@H](CCC(=O)O)NC(=O)[C@H](CCC(=O)O)NC(=O)[C@H](CCCCNC(=O)COCCOCCNC(=O)COCCOCCNC(=O)CCC(NC(=O)CCCCCCCCCCCCCCCCCCC(=O)O)C(=O)O)NC(=O)[C@H](CC(C)C)NC(=O)[C@H](Cc1ccc(O)cc1)NC(=O)[C@H](CO)NC(=O)[C@@H](NC(=O)[C@H](CC(=O)O)NC(=O)[C@H](CO)NC(=O)[C@@H](NC(=O)[C@H](Cc1ccccc1)NC(=O)[C@@H](NC(=O)CNC(=O)[C@H](CCC(=O)O)NC(=O)C(C)(C)NC(=O)[C@@H](N)Cc1c[nH]cn1)[C@@H](C)O)[C@@H](C)O)C(C)C)C(=O)N[C@@H](CCC(=O)O)C(=O)N[C@@H](Cc1c[nH]cn1)C(=O)N[C@@H](CC(C)C)C(=O)N[C@H](C(N)=O)C(C)C (some centres not stated) (H-H[Aib]EGTFTSDVSYLK([AEEA-AEEA-ξγGlu-C20 diacid])EEA[Aib]LQRFLEHLV-NH2)
- Activity (Mus musculus [6]): Active
- Activity (Mus musculus [7]): Dose-Dependent Effect
- Ratio EC50 (Homo sapiens): 10600

Compound: CC[C@H](C)[C@H](NC(=O)[C@H](Cc1ccccc1)NC(=O)[C@H](CCC(=O)O)NC(=O)[C@H](CCCCN)NC(=O)[C@H](C)NC(=O)[C@H](C)NC(=O)[C@H](CCC(N)=O)NC(=O)CNC(=O)[C@H](CCC(=O)O)NC(=O)[C@H](CC(C)C)NC(=O)[C@H](Cc1ccc(O)cc1)NC(=O)[C@H](CO)NC(=O)[C@H](CO)NC(=O)[C@@H](NC(=O)[C@H](CC(=O)O)NC(=O)[C@H](CO)NC(=O)[C@@H](NC(=O)[C@H](Cc1ccccc1)NC(=O)[C@@H](NC(=O)CNC(=O)[C@H](CCC(=O)O)NC(=O)[C@H](C)NC(=O)[C@@H](N)Cc1c[nH]cn1)[C@H](C)O)[C@@H](C)O)C(C)C)C(=O)N[C@@H](C)C(=O)N[C@@H](Cc1c[nH]c2ccccc12)C(=O)N[C@@H](CC(C)C)C(=O)N[C@H](C(=O)N[C@@H](CCCCN)C(=O)NCC(=O)N[C@@H](CCCNC(=N)N)C(=O)O)C(C)C
- degraded [3]: 8.1%
- EC50 (Secretin receptor): 800 nM
